# Values of other authors as cited in patent US20030211177A1, “Method and composition for treatment and prevention of alopecia” (priority 2003, published 2003).
# Tested on: patients' hair (alopecia)
# Conditions: Propecia literature
compound,measurement,value
"CC(C)(C)NC(=O)[C@H]1CC[C@H]2[C@@H]3CC[C@H]4NC(=O)C=C[C@]4(C)[C@H]3CC[C@]12C [Propecia ®, finasteride]",Excellent Improvement (percent of subjects),0%
same,Moderate Improvement (percent of subjects),4%
same,No Improvement (percent of subjects),62%
same,Slight Improvement (percent of subjects),34%
